The values that follow come from US20240025884A1 (Dong-A ST Co., Ltd., priority 2022, published 2024).

In this experiment the target is GCN2 (Homo sapiens (Human), UniProt Q9P2K8). Briefly: GCN2 Biochemical Assay (TR-FRET, GFP-eIF2S1 substrate phosphorylation). To be noted: read-out: IC50 (GCN2 Inhibitory Activity). Put shortly:
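In-house GCN2 (1.6 nM 2× stock) phosphorylates GFP-eIF2S1 (50 nM 2× stock) with ATP (0.2 mM 2× stock) and tRNA, pH 7.5, 70 min at room temperature; 10-point 3.16-fold compound series. TR-FRET detection with Tb-anti-phospho antibody, 2–3 h, Ex 340/Em 490/520 nm; artifact plate spiked with phospho-substrate.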

Chain of GCN2 (Q9P2K8 whole entry): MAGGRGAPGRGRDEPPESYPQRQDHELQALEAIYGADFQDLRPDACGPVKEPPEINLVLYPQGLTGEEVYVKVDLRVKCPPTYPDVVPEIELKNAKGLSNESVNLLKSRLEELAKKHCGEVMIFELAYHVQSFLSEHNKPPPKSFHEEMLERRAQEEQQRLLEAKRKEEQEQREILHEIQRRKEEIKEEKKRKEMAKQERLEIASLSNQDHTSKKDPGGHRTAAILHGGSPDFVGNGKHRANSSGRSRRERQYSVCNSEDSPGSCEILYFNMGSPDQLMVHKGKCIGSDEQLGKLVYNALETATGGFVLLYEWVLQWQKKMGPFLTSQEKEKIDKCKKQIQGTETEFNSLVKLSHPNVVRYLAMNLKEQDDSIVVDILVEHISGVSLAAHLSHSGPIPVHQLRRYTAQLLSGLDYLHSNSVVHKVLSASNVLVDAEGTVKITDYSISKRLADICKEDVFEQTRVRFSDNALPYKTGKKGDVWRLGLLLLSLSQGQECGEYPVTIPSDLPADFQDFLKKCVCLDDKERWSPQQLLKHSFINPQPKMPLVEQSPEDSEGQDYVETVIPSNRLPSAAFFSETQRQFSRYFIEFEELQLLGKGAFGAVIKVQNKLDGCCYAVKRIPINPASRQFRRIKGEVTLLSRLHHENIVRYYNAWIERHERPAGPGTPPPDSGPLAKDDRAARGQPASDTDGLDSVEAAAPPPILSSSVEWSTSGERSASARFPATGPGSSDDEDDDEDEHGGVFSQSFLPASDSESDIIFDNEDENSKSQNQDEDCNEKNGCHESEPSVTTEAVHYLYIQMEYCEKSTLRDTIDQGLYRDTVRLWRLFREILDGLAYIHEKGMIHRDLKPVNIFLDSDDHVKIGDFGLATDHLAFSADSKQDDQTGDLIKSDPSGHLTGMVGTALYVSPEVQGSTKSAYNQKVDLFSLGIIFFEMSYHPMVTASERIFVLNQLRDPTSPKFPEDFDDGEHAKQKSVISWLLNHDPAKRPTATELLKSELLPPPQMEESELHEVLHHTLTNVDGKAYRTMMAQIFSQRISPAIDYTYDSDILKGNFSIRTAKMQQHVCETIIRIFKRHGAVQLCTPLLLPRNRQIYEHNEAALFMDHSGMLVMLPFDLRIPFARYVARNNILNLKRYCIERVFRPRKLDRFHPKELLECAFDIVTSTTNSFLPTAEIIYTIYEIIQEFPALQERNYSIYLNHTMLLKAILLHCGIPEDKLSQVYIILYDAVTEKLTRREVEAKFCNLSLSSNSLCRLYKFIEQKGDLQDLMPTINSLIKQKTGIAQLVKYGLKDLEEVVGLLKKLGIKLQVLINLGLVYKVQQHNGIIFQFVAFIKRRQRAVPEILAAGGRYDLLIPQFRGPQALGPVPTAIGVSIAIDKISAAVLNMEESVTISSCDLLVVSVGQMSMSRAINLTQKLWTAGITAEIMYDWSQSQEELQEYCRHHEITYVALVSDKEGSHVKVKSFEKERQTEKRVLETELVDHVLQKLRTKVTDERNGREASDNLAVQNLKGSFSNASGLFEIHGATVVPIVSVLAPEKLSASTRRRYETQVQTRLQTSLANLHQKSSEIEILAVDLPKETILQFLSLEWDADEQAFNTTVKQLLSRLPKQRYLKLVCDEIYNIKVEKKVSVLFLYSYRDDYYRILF

As to `Cc1cnc(Nc2cc(C)n(C)n2)nc1-c1c[nH]c2c(NC(=O)CN3CC[C@H](Oc4cc(C(N)=O)on4)C3)cccc12` [Example 122, (S)-3-((1-(2-((3-(2-((1,5-dimethyl-1H-pyrazol-3-yl)amino)-5-methylpyrimidin-4-yl)-1H-indol-7-yl)amino)-2-oxoethyl)pyrrolidin-3-yl)oxy)isoxazole-5-carboxamide], the IC50 lay in the range of 10 to 100 nM.
As for `Cc1cnc(Nc2cc(C)n(C)n2)nc1-c1c[nH]c2c(N3Cc4c(cccc4-c4ccncc4N)C3=O)cccc12` [Example 447, 4-(3-aminopyridin-4-yl)-2-(3-(2-((1,5-dimethyl-1H-pyrazol-3-yl)amino)-5-methylpyrimidin-4-yl)-1H-indol-7-yl)isoindolin-1-one], the IC50 is less than 10 nM.
With `COC(=O)c1sc2ccccc2c1O[C@H]1CCN(CC(=O)Nc2cccc3c(-c4nc(Nc5cc(C)n(C)n5)ncc4C)c[nH]c23)C1` [Example 106, methyl (S)-3-((1-(2-((3-(2-((1,5-dimethyl-1H-pyrazol-3-yl)amino)-5-methylpyrimidin-4-yl)-1H-indol-7-yl)amino)-2-oxoethyl)pyrrolidin-3-yl)oxy)benzo[b]thiophene-2-carboxylate], the IC50 is 100 to 1000 nM.
In the case of `Cc1cnc(Nc2cc(C)n(C)n2)nc1-c1c[nH]c2c(N3Cc4c(cccc4-c4ccnc(C#N)c4)C3=O)cccc12` [Example 469, 4-(2-(3-(2-((1,5-dimethyl-1H-pyrazol-3-yl)amino)-5-methylpyrimidin-4-yl)-1H-indol-7-yl)-1-oxoisoindolin-4-yl)picolinonitrile], the IC50 was less than 10 nM.
Take `Cc1cnc(Nc2cc(C)n(C)n2)nc1-c1c[nH]c2c(NC(=O)CN3CCC(Oc4ccccn4)CC3)cccc12` [Example 39, N-(3-(2-((1,5-dimethyl-1H-pyrazol-3-yl)amino)-5-methylpyrimidin-4-yl)-1H-indol-7-yl)-2-(4-(pyridin-2-yloxy)piperidin-1-yl)acetamide]: the IC50 lay in the range of 100 to 1000 nM.
For the compound `Cc1cnc(Nc2cc(C)n(C)n2)nc1-c1c[nH]c2c(N3Cc4c(-c5cccnc5)ccnc4C3=O)cccc12` [Example 495, 6-(3-(2-((1,5-dimethyl-1H-pyrazol-3-yl)amino)-5-methylpyrimidin-4-yl)-1H-indol-7-yl)-4-(pyridin-3-yl)-5,6-dihydro-7H-pyrrolo[3,4-b]pyridin-7-one], the IC50 is less than 10 nM.
To `Cc1cnc(Nc2cc(C)n(C)n2)nc1-c1c[nH]c2c(NC(=O)CN3CC[C@H](Oc4ccnc(N)c4)C3)cccc12` [Example 90] belongs less than 10 nM.
As for `Cc1cnc(Nc2cc(C)n(C)n2)nc1-c1c[nH]c2c(NC(=O)CN3CC[C@H](Oc4noc5ccccc45)C3)cccc12` [Example 113, (S)-2-(3-(benzo[d]isoxazol-3-yloxy)pyrrolidin-1-yl)-N-(3-(2-((1,5-dimethyl-1H-pyrazol-3-yl)amino)-5-methylpyrimidin-4-yl)-1H-indol-7-yl)acetamide], the IC50 is 10 to 100 nM.
Regarding `COC(=O)c1sccc1O[C@H]1CCN(CC(=O)Nc2cccc3c(-c4nc(Nc5cc(C)n(C)n5)ncc4C)c[nH]c23)C1` [Example 107, methyl (S)-3-((1-(2-((3-(2-((1,5-dimethyl-1H-pyrazol-3-yl)amino)-5-methylpyrimidin-4-yl)-1H-indol-7-yl)amino)-2-oxoethyl)pyrrolidin-3-yl)oxy)thiophene-2-carboxylate], the IC50 was less than 10 nM.
In the case of `Cc1cnc(Nc2cc(C)n(C)n2)nc1-c1c[nH]c2c(N3Cc4c(cccc4-c4cc(N5CCN(C)CC5)ccn4)C3=O)cccc12` [Example 423, 2-(3-(2-((1,5-dimethyl-1H-pyrazol-3-yl)amino)-5-methylpyrimidin-4-yl)-1H-indol-7-yl)-4-(4-(4-methylpiperazin-1-yl)pyridin-2-yl)isoindolin-1-one], the IC50 is less than 10 nM.
With `CCCNc1nccc(O[C@H]2CCN(CC(=O)Nc3cccc4c(-c5nc(Nc6cc(C)n(C)n6)ncc5C)c[nH]c34)C2)n1` [Example 204, (S)-N-(3-(2-((1,5-dimethyl-1H-pyrazol-3-yl)amino)-5-methylpyrimidin-4-yl)-1H-indol-7-yl)-2-(3-((2-(propylamino)pyrimidin-4-yl)oxy)pyrrolidin-1-yl)acetamide], the IC50 is less than 10 nM.
To `Cc1cnc(Nc2cc(C)n(C)n2)nc1-c1c[nH]c2c(N3C(=O)c4cccc(O)c4C3=O)cccc12` [Example 263, 2-(3-(2-((1,5-dimethyl-1H-pyrazol-3-yl)amino)-5-methylpyrimidin-4-yl)-1H-indol-7-yl)-4-hydroxyisoindoline-1,3-dione] belongs less than 10 nM; to `Cc1cnc(Nc2cc(C)n(C)n2)nc1-c1c[nH]c2c(N3Cc4c(ccnc4-c4ccncc4)C3=O)cccc12` [Example 501, 2-(3-(2-((1,5-dimethyl-1H-pyrazol-3-yl)amino)-5-methylpyrimidin-4-yl)-1H-indol-7-yl)-4-(pyridin-4-yl)-2,3-dihydro-1H-pyrrolo[3,4-c]pyridin-1-one], less than 10 nM.
To `Cc1cnc(Nc2cc(C)n(C)n2)nc1-c1c[nH]c2c(NC(=O)CN3CC[C@H](Oc4cc(N5CCCC5)nc(N)n4)C3)cccc12` [Example 167, (S)-2-(3-((2-amino-6-(pyrrolidin-1-yl)pyrimidin-4-yl)oxy)pyrrolidin-1-yl)-N-(3-(2-((1,5-dimethyl-1H-pyrazol-3-yl)amino)-5-methylpyrimidin-4-yl)-1H-indol-7-yl)acetamide] belongs 10 to 100 nM.
Consider `Cc1cnc(Nc2cc(C)n(C)n2)nc1-c1c[nH]c2c(N3Cc4c(cccc4-c4cn[nH]c4)C3=O)cccc12` [Example 390, 2-(3-(2-((1,5-dimethyl-1H-pyrazol-3-yl)amino)-5-methylpyrimidin-4-yl)-1H-indol-7-yl)-4-(1H-pyrazol-4-yl)isoindolin-1-one], for which the IC50 was less than 10 nM.
In the case of `Cc1cnc(Nc2cc(C)n(C)n2)nc1-c1c[nH]c2c(N3Cc4c(cccc4-c4ccnc(Cl)c4)C3=O)cccc12` [Example 402, 4-(2-chloropyridin-4-yl)-2-(3-(2-((1,5-dimethyl-1H-pyrazol-3-yl)amino)-5-methylpyrimidin-4-yl)-1H-indol-7-yl)isoindolin-1-one], the IC50 was in the range of 10 to 100 nM.
Take `Cc1cnc(Nc2cc(C)n(C)n2)nc1-c1c[nH]c2c(NC(=O)CN3CC[C@@H](O)C3)cccc12` [Example 71, (R)-N-(3-(2-((1,5-dimethyl-1H-pyrazol-3-yl)amino)-5-methylpyrimidin-4-yl)-1H-indol-7-yl)-2-(3-hydroxypyrrolidin-1-yl)acetamide]: the IC50 lay within 10 to 100 nM.
For the compound `Cc1cnc(Nc2cc(C)n(C)n2)nc1-c1c[nH]c2c(N3Cc4c(cccc4-c4ccccc4N)C3=O)cccc12` [Example 462, 4-(2-aminophenyl)-2-(3-(2-((1,5-dimethyl-1H-pyrazol-3-yl)amino)-5-methylpyrimidin-4-yl)-1H-indol-7-yl)isoindolin-1-one], the 50% inhibitory concentration (IC50) is 10 to 100 nM.
Take `Cc1cnc(Nc2cc(C)n(C)n2)nc1-c1c[nH]c2c(N3Cc4cccc(-c5cn[nH]c5)c4C3=O)cccc12` [Example 386, 2-(3-(2-((1,5-dimethyl-1H-pyrazol-3-yl)amino)-5-methylpyrimidin-4-yl)-1H-indol-7-yl)-7-(1H-pyrazol-4-yl)isoindolin-1-one]: the IC50 is 10 to 100 nM.
